Data on three compounds can be found in publication PMC4348352 (Bioorganic & medicinal chemistry letters, 2015).

The subject of experiment [1] is S. aureus. As to conditions: cited from earlier work.
Experiment [2] deals with E. coli. As to conditions: cited from earlier work.
The subject of experiment [3] is B. anthracis. As to conditions: cited from earlier work.
The subject of experiment [4] is F. tularensis. The experiment in a line: microbe, parasite or virus in culture. As to conditions: Francisella tularensis. Format: cell-based.
Experiment [5] relates to E. coli TolC-. Briefly: microbe, parasite or virus in culture. Format: cell-based. As to conditions: Escherichia coli.

Values after ≈ are worked out from the molar mass of the structure shown.

For `Cc1cc2ncn(Cc3ccc(Cl)c(Cl)c3)c2cc1C` [Compound 1], the MIC is reported as 25 µg/mL (≈ 81.9 µM) in experiment [1], greater than 200 µg/mL in experiment [2] and 9.4 µg/mL (≈ 30.8 µM) in experiment [3].

The compound `CC(c1ccc(Cl)c(Cl)c1)n1cnc2cc3c(cc21)CCC3` (stereo not drawn) [Compound 3] yielded an MIC in experiment [4] of 3.1 to 6.3 µg/mL (≈ 9.36 to 19 µM).

Take `CC(c1ccc(Cl)c(Cl)c1)n1cnc2cc3c(cc21)CCCC3` (stereo not drawn) [Compound 4]: the MIC in experiment [4] was in the range of 3.1 to 6.3 µg/mL (≈ 8.98 to 18.2 µM). Further, in experiment [5], the MBC is greater than 25 µg/mL.
